Patent US7115629B2, “Carbamates derived from arylalkylamines” (Laboratorios S.A.L.V.A.T., S.A., priority 2000, dated 2006)
Where a name gives a salt, the structure may show the parent alone.

These compounds were tested against T1, human M2 receptors (Homo sapiens, UniProt P08172) (assay: Binding test to cloned human M2 muscarinic receptor ([3H]-NMS displacement, CHO-K1 membranes), reported as M2/M3 ratio). Details: value greater than 1 indicates selectivity for the M3 receptor.
T1 construct: purchased Receptor Biology; host or cells: CHO-K1 cells transfected with the human receptor (membranes)
T1 sequence (P08172 1-466): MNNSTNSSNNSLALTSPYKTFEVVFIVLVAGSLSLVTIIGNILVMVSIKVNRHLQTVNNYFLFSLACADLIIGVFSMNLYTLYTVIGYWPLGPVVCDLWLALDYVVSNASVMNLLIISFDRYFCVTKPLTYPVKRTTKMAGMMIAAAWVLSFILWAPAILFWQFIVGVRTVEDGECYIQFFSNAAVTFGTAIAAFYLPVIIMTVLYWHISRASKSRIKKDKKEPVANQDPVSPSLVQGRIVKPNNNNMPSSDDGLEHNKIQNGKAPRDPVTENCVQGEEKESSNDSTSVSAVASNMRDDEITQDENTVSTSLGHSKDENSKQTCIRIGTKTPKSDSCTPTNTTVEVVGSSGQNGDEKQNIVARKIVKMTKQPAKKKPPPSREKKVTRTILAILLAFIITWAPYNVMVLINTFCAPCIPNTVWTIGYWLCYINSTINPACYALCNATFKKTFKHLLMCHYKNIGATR
Method: (§1) Membranes from CHO—K1 cells transfected with human M2 or M3 receptors (Receptor Biology) were used. The summarised experimental procedure for both receptors was the following: membranes (15–20 μg) were incubated with [^3H]-NMS (0.3–0.5 nM) for 60 min at 25° C., in presence or absence of the antagonists. Incubation was carried out in 96 wells polystyrene microplates in a total incubation volume of 0.2 mL of PBS pH 7.4. Non specific binding was determined in parallel assays in presence of atropine (5 μM). Samples were filtered through type GF/C glass fibre, preincubated with PEI 0.3%. Filters were washed 3–4 times with 50 mM Tris-HCl, 0.9% NaCl, pH 7.4 at 4° C., and dried at 50° C. for 45 min. Filter bound radioactivity was quantified by liquid scintillation counting.
(§2) For the calculation of the inhibition constant (Ki), displacement curves were analysed by non-linear regression (GraphPad Prism). Dissociation constant (KD) of [^3H]-NMS for each receptor was obtained through the saturation curves obtained in the same conditions as the experiments carried out with the antagonists.
For `C[N+]12CCC(CC1)C(OC(=O)N(Cc1ccccc1)c1ccccc1F)C2.[I-]` (stereo not drawn) [Example 68], the “M2/M3 (ratio between M2 and M3 receptor affinities)” value was 5.
In the case of `O=C(OC1CN2CCC1CC2)N(Cc1ccc(O)cc1)c1ccccc1` (stereo not drawn) [Example 47], the “M2/M3 (ratio between M2 and M3 receptor affinities)” value is reported as 33.
With `O=C(OC1CN2CCC1CC2)N(CC1CC2C=CC1C2)c1ccccc1` (stereo not drawn) [Example 63] the “M2/M3 (ratio between M2 and M3 receptor affinities)” value was 64.
In the case of `NC(=O)c1ccc(CN(C(=O)OC2CN3CCC2CC3)c2ccccc2)cc1` (stereo not drawn) [Example 44], the “M2/M3 (ratio between M2 and M3 receptor affinities)” value is reported as 6.
In the case of `O=C(OC1CN2CCC1CC2)N(Cc1ccc(F)c(F)c1)c1ccccc1` (stereo not drawn) [Example 26], the “M2/M3 (ratio between M2 and M3 receptor affinities)” value is reported as 50.
`Cc1ccc(F)c(N(Cc2ccc(Cl)cc2)C(=O)OC2CN3CCC2CC3)c1` (stereo not drawn) [Example 19] was tested, and the “M2/M3 (ratio between M2 and M3 receptor affinities)” value was 23.
For `O=C(OC1CN2CCC1CC2)N(Cc1ccc(Cl)c(Cl)c1)c1ccccc1` (stereo not drawn) [Example 29], the “M2/M3 (ratio between M2 and M3 receptor affinities)” value was 50.
With `O=C(OC1CN2CCC1CC2)N(Cc1ccccc1)c1ccc(F)c(F)c1` (stereo not drawn) [Example 9] the “M2/M3 (ratio between M2 and M3 receptor affinities)” value was 9.
In the case of `N#Cc1ccc(N(Cc2ccccc2)C(=O)OC2CN3CCC2CC3)cc1` (stereo not drawn) [Example 13], the “M2/M3 (ratio between M2 and M3 receptor affinities)” value is reported as 17.
For `O=C(OC1CN2CCC1CC2)N(Cc1ccc(F)c(F)c1F)c1cccc(Cl)c1` (stereo not drawn) [Example 33], the “M2/M3 (ratio between M2 and M3 receptor affinities)” value was 142.
In the case of `N#Cc1ccc(CN(C(=O)OC2CN3CCC2CC3)c2ccccc2)cc1` (stereo not drawn) [Example 43], the “M2/M3 (ratio between M2 and M3 receptor affinities)” value is reported as 31.
With `O=C(OC1CN2CCC1CC2)N(CC1=CCCCC1)c1ccccc1F` (stereo not drawn) [Example 60] the “M2/M3 (ratio between M2 and M3 receptor affinities)” value was 48.
In the case of `O=C(OC1CN2CCC1CC2)N(Cc1ccccc1)c1ccc2c(c1)CCC2` (stereo not drawn) [Example 12], the “M2/M3 (ratio between M2 and M3 receptor affinities)” value is reported as 6.
In the case of `O=C(OC1CN2CCC1CC2)N(Cc1ccccc1)c1cccc(Cl)c1` (stereo not drawn) [Example 6], the “M2/M3 (ratio between M2 and M3 receptor affinities)” value is reported as 87.
With `O=C(O[C@H]1CN2CCC1CC2)N(Cc1ccccc1)c1ccccc1` [Example 2, (R)-3-quinuclidyl N-benzyl-N-phenylcarbamate, hydrochloride] the “M2/M3 (ratio between M2 and M3 receptor affinities)” value was 5.
With `O=C(OC1CN2CCC1CC2)N(Cc1ccc(Cl)c(F)c1)c1ccccc1F` (stereo not drawn) [Example 27] the “M2/M3 (ratio between M2 and M3 receptor affinities)” value was 92.
With `Cc1ccc(F)c(N(Cc2ccccc2F)C(=O)OC2CN3CCC2CC3)c1` (stereo not drawn) [Example 15] the “M2/M3 (ratio between M2 and M3 receptor affinities)” value was 21.
For `O=C(OC1CN2CCC1CC2)N(Cc1ccccc1O)c1ccccc1F` (stereo not drawn) [Example 45], the “M2/M3 (ratio between M2 and M3 receptor affinities)” value was 37.
`O=C(OC1CN2CCC1CC2)N(Cc1ccccc1)c1ccccc1O` (stereo not drawn) [Example 14] was tested, and the “M2/M3 (ratio between M2 and M3 receptor affinities)” value was 21.
`C[N+]12CCC(CC1)C(OC(=O)N(CC1CCCCC1)c1ccccc1F)C2.[I-]` (stereo not drawn) [Example 69] was tested, and the “M2/M3 (ratio between M2 and M3 receptor affinities)” value was 8.
`O=C(OC1CN2CCC1CC2)N(Cc1ccc(Cl)cc1Cl)c1ccc(F)cc1F` (stereo not drawn) [Example 21] was tested, and the “M2/M3 (ratio between M2 and M3 receptor affinities)” value was 5.
In the case of `Cc1cccc(N(Cc2cc(F)cc(F)c2F)C(=O)OC2CN3CCC2CC3)c1` (stereo not drawn) [Example 34], the “M2/M3 (ratio between M2 and M3 receptor affinities)” value is reported as 90.
With `O=C(OC1CN2CCC1CC2)N(Cc1ccccc1)c1cccc(Br)c1` (stereo not drawn) [Example 7] the “M2/M3 (ratio between M2 and M3 receptor affinities)” value was 19.
With `O=C(OC1CN2CCC1CC2)N(Cc1ccccc1)c1ccccc1F` (stereo not drawn) [Example 5] the “M2/M3 (ratio between M2 and M3 receptor affinities)” value was 47.
For `Cc1cccc(N(CC2CCC(C)CC2)C(=O)OC2CN3CCC2CC3)c1` (stereo not drawn) [Example 58], the “M2/M3 (ratio between M2 and M3 receptor affinities)” value was 93.
For `COc1cc(CN(C(=O)OC2CN3CCC2CC3)c2cccc(Cl)c2)ccc1OCc1ccccc1` (stereo not drawn) [Example 51], the “M2/M3 (ratio between M2 and M3 receptor affinities)” value was 3.
For `O=C(OC1CN2CCC1CC2)N(Cc1ccc(F)cc1)c1cccc(F)c1F` (stereo not drawn) [Example 18], the “M2/M3 (ratio between M2 and M3 receptor affinities)” value was 154.

These compounds were tested against T2, human M3 receptors (Homo sapiens, UniProt P20309) (assay: Binding test to cloned human M3 muscarinic receptor ([3H]-NMS displacement, CHO-K1 membranes)). Details: not given.
T2 construct: purchased Receptor Biology; host or cells: CHO-K1 cells transfected with the human receptor (membranes)
T2 sequence (P20309 whole entry): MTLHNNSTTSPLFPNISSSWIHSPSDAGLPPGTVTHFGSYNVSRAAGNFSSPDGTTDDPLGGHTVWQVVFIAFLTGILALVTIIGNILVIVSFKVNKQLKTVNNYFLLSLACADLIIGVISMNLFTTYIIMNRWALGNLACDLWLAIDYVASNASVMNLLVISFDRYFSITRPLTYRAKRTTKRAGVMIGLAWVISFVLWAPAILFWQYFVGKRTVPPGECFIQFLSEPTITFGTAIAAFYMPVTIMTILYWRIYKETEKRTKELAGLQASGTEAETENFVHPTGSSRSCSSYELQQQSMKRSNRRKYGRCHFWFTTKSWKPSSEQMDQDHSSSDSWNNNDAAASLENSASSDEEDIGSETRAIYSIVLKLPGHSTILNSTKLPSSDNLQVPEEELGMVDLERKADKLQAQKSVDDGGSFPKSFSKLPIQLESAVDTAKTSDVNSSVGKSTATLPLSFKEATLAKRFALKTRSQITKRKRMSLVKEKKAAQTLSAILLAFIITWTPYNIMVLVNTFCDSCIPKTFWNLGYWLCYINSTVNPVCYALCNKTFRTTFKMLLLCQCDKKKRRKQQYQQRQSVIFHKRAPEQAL
Method: as §1, §2
Compound `O=C(O[C@H]1CN2CCC1CC2)N(Cc1ccccc1)c1ccccc1` [Example 2, (R)-3-quinuclidyl N-benzyl-N-phenylcarbamate, hydrochloride] has a Ki of 0.31 nM.

Same assay, conditions: membranes of CHO-K1 cells transfected with human M3; [3H]-NMS; mean of two independent experiments in duplicate; read-out: M3 (human M3 antagonist activity, binding affinity constant Ki)
Work on `C[N+]12CCC(CC1)C(OC(=O)N(Cc1ccccc1)c1ccccc1F)C2.[I-]` (stereo not drawn) [Example 68] yielded a Ki of 9.9 nM.
With `O=C(OC1CN2CCC1CC2)N(Cc1ccc(O)cc1)c1ccccc1` (stereo not drawn) [Example 47] the Ki was 5.7 nM.
Compound `O=C(OC1CN2CCC1CC2)N(CC1CC2C=CC1C2)c1ccccc1` (stereo not drawn) [Example 63] has a Ki of 0.06 nM.
With `NC(=O)c1ccc(CN(C(=O)OC2CN3CCC2CC3)c2ccccc2)cc1` (stereo not drawn) [Example 44] the Ki was 7.7 nM.
`O=C(OC1CN2CCC1CC2)N(Cc1ccc(F)c(F)c1)c1ccccc1` (stereo not drawn) [Example 26] was tested, and the Ki was 0.1 nM.
Compound `Cc1ccc(F)c(N(Cc2ccc(Cl)cc2)C(=O)OC2CN3CCC2CC3)c1` (stereo not drawn) [Example 19] has a Ki of 1.2 nM.
`O=C(OC1CN2CCC1CC2)N(Cc1ccc(Cl)c(Cl)c1)c1ccccc1` (stereo not drawn) [Example 29] was tested, and the Ki was 1.4 nM.
`O=C(OC1CN2CCC1CC2)N(Cc1ccccc1)c1ccc(F)c(F)c1` (stereo not drawn) [Example 9] gave a Ki of 19.6 nM.
For `N#Cc1ccc(N(Cc2ccccc2)C(=O)OC2CN3CCC2CC3)cc1` (stereo not drawn) [Example 13], the Ki was 4.31 nM.
`O=C(OC1CN2CCC1CC2)N(Cc1ccc(F)c(F)c1F)c1cccc(Cl)c1` (stereo not drawn) [Example 33] was tested, and the Ki was 0.4 nM.
For `N#Cc1ccc(CN(C(=O)OC2CN3CCC2CC3)c2ccccc2)cc1` (stereo not drawn) [Example 43], the Ki was 0.9 nM.
`O=C(OC1CN2CCC1CC2)N(CC1=CCCCC1)c1ccccc1F` (stereo not drawn) [Example 60] was tested, and the Ki was 0.02 nM.
`O=C(OC1CN2CCC1CC2)N(Cc1ccccc1)c1ccc2c(c1)CCC2` (stereo not drawn) [Example 12] gave a Ki of 30.7 nM.
Work on `O=C(OC1CN2CCC1CC2)N(Cc1ccccc1)c1cccc(Cl)c1` (stereo not drawn) [Example 6] yielded a Ki of 0.21 nM.
Work on `O=C(OC1CN2CCC1CC2)N(Cc1ccc(Cl)c(F)c1)c1ccccc1F` (stereo not drawn) [Example 27] yielded a Ki of 0.37 nM.
`Cc1ccc(F)c(N(Cc2ccccc2F)C(=O)OC2CN3CCC2CC3)c1` (stereo not drawn) [Example 15] gave a Ki of 0.53 nM.
In the case of `O=C(OC1CN2CCC1CC2)N(Cc1ccccc1O)c1ccccc1F` (stereo not drawn) [Example 45], the Ki is reported as 0.18 nM.
Compound `O=C(OC1CN2CCC1CC2)N(Cc1ccccc1)c1ccccc1O` (stereo not drawn) [Example 14] has a Ki of 0.31 nM.
With `C[N+]12CCC(CC1)C(OC(=O)N(CC1CCCCC1)c1ccccc1F)C2.[I-]` (stereo not drawn) [Example 69] the Ki was 14.1 nM.
For `O=C(OC1CN2CCC1CC2)N(Cc1ccc(Cl)cc1Cl)c1ccc(F)cc1F` (stereo not drawn) [Example 21], the Ki was 105 nM.
Work on `Cc1cccc(N(Cc2cc(F)cc(F)c2F)C(=O)OC2CN3CCC2CC3)c1` (stereo not drawn) [Example 34] yielded a Ki of 0.3 nM.
`O=C(OC1CN2CCC1CC2)N(Cc1ccccc1)c1cccc(Br)c1` (stereo not drawn) [Example 7] was tested, and the Ki was 2.05 nM.
With `O=C(OC1CN2CCC1CC2)N(Cc1ccccc1)c1ccccc1F` (stereo not drawn) [Example 5] the Ki was 0.047 nM.
In the case of `Cc1cccc(N(CC2CCC(C)CC2)C(=O)OC2CN3CCC2CC3)c1` (stereo not drawn) [Example 58], the Ki is reported as 0.088 nM.
With `COc1cc(CN(C(=O)OC2CN3CCC2CC3)c2cccc(Cl)c2)ccc1OCc1ccccc1` (stereo not drawn) [Example 51] the Ki was 51.9 nM.
`O=C(OC1CN2CCC1CC2)N(Cc1ccc(F)cc1)c1cccc(F)c1F` (stereo not drawn) [Example 18] showed a Ki of 0.92 nM.
